Measurements taken from ChEMBL document CHEMBL5579820, “New insights into butyrylcholinesterase: Pharmaceutical applications, selective inhibitors and multitarget-directed ligands” (Eur J Med Chem, 2024).
“And” between values parts separate entries of the source, which are not always exact repeats. Equal entries are not always repeated.

Tests used:
Acetylcholinesterase [1] = molecular target: T1, Acetylcholinesterase (Homo sapiens, UniProt P22303); assay: Inhibition of human AChE using acetylthiocholine iodide as substrate after 15 mins by Ellman's method
Cholinesterase [2] = molecular target: T2, Cholinesterase (Homo sapiens, UniProt P06276); assay: Inhibition of BChE (unknown origin)
Cholinesterase [3] = molecular target: T2, Cholinesterase
Acetylcholinesterase [4] = molecular target: T1, Acetylcholinesterase
Acetylcholinesterase [5] = molecular target: T1, Acetylcholinesterase; assay: Inhibition of AChE (unknown origin) using acetylthiocholine iodide as substrate preincubated for 15 min followed by substrate addition and measured after 60 min by Ellman's method
Cholinesterase [6] = molecular target: T2, Cholinesterase; assay: Inhibition of human BChE using butyrylthiocholineiodide as substrate measured for 30 mins by Ellman's method
Acetylcholinesterase [7] = molecular target: T3, Acetylcholinesterase (Electrophorus electricus, UniProt O42275); assay: Inhibition of Electric eel AChE using […] as substrate by spectrophotometry based Ellman's method
[8] = Inhibition of equine serum BChE using butyrylthiocholine iodide as substrate by Ellman's method; set-up: species or system Equus caballus
Cholinesterase [9] = molecular target: T4, Cholinesterase (Equus caballus, UniProt P81908); assay: Inhibition of equine BuChE
[10] = molecular target: Acetylcholinesterase (Electrophorus electricus) (UniProt O42275); assay: Inhibition of electric eel AChE using acetylthiocholine iodide as substrate at 50 uM by Ellman's method relative to control
Acetylcholinesterase [11] = molecular target: T3, Acetylcholinesterase; assay: Inhibition of electric eel AChE using acetylthiocholine iodide as substrate after 60 mins by Ellman's method
Cholinesterase [12] = molecular target: T4, Cholinesterase; assay: Inhibition of equine serum BuChE by Ellman's method
Acetylcholinesterase [13] = molecular target: T3, Acetylcholinesterase; assay: Inhibition of electric eel AChE
[14] = Selectivity index, ratio of IC50 for human AChE to IC50 for equine BChE using butyrylthiocholine as substrate
Acetylcholinesterase [15] = molecular target: T1, Acetylcholinesterase; assay: Binding affinity to AChE (unknown origin) assessed as inhibition constant
Cholinesterase [16] = molecular target: T2, Cholinesterase; assay: Binding affinity to BChE (unknown origin) assessed as inhibition constant
Acetylcholinesterase [17] = molecular target: T1, Acetylcholinesterase; assay: Inhibition of human AChE at 15 uM relative to control
[18] = Selectivity index, ratio of IC50 for human AChE using acetylthiocholine iodide as substrate to IC50 for equine serum BuChE using butyrylthiocholine iodide as substrate
[19] = molecular target: T5, Amine oxidase [flavin-containing] A (Homo sapiens, UniProt P21397); assay: Inhibition of human recombinant MAO-A using kynuramine as substrate by incubated for 75 mins by spectrophotometric analysis
T5 sequence (P21397 whole entry): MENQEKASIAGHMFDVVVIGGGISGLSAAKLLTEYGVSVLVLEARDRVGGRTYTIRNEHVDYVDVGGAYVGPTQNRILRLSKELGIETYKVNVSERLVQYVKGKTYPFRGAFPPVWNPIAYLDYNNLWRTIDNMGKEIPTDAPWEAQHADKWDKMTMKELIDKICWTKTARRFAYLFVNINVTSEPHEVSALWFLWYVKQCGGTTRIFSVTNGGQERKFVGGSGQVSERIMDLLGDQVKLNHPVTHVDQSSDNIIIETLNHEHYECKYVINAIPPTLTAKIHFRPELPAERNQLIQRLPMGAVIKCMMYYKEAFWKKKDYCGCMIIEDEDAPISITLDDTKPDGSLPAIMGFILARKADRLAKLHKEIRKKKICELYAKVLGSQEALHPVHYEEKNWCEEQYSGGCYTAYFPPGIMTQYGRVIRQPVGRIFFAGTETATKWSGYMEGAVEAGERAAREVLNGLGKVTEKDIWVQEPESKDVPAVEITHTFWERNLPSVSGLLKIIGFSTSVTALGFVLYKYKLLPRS

[20] = Selectivity index, ratio of IC50 for human erythrocyte AChE to IC50 for equine BuChE
[21] = molecular target: Cholinesterases; ACHE & BCHE (Homo sapiens) (UniProt P06276+P22303); assay: Selectivity index, ratio of IC50 for inhibition of human AChE to IC50 for inhibition of human BChE; format: protein assay
Sequence of Cholinesterases; ACHE & BCHE (Homo sapiens) (P06276 whole entry, looked up): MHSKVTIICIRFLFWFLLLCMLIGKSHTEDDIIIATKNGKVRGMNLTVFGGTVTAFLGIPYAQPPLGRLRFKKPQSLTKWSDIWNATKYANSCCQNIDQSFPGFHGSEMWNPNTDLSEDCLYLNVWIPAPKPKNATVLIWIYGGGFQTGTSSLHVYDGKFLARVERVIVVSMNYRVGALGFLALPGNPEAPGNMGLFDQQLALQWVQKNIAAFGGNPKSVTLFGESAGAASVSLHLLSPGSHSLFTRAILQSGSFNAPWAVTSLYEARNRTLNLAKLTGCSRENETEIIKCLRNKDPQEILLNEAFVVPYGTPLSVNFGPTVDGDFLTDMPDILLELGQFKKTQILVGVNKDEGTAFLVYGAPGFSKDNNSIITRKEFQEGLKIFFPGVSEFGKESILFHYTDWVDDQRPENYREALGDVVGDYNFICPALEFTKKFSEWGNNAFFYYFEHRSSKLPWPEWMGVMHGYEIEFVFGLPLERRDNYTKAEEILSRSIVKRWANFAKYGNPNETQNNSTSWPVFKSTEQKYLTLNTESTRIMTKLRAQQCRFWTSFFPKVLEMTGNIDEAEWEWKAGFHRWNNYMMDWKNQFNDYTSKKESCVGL
Sequence of Cholinesterases; ACHE & BCHE (Homo sapiens) (P22303 whole entry, looked up): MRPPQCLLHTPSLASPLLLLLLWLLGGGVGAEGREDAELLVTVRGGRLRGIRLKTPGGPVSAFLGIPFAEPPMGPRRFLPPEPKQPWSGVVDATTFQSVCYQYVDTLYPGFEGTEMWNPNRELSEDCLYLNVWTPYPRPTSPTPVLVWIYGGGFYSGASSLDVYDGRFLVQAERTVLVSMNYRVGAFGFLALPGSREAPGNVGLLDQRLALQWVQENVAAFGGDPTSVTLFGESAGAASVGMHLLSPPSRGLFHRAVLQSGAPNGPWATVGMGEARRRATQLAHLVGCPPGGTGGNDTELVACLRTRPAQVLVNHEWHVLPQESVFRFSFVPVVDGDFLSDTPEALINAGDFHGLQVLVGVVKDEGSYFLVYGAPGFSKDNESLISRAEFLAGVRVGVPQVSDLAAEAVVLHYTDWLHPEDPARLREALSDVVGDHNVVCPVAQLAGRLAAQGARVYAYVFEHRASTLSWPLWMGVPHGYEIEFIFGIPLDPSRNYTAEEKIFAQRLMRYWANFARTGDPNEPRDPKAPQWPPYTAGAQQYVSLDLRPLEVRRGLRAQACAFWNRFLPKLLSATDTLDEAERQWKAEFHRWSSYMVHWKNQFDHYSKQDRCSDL

T2 sequence (P06276 whole entry): as the sequence (P06276 whole entry, looked up) above
T1 sequence (P22303 whole entry): as the sequence (P22303 whole entry, looked up) above
T3 sequence (O42275 whole entry): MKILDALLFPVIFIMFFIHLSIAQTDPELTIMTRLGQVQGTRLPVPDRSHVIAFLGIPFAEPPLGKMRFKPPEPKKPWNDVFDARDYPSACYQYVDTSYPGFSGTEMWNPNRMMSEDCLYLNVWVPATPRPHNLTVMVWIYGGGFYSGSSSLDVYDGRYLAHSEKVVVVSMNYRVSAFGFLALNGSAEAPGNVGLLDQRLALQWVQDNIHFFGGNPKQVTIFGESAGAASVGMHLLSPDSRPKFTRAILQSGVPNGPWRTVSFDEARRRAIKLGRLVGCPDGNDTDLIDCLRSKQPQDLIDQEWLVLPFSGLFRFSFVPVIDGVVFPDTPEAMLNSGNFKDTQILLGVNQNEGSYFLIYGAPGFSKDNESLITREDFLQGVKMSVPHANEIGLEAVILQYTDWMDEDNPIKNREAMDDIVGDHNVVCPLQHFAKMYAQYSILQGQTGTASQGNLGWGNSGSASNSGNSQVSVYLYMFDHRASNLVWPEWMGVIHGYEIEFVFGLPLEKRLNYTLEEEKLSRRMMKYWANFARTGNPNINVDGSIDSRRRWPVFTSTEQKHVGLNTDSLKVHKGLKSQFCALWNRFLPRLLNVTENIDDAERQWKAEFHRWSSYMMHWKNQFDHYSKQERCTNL
T4 sequence (P81908 whole entry): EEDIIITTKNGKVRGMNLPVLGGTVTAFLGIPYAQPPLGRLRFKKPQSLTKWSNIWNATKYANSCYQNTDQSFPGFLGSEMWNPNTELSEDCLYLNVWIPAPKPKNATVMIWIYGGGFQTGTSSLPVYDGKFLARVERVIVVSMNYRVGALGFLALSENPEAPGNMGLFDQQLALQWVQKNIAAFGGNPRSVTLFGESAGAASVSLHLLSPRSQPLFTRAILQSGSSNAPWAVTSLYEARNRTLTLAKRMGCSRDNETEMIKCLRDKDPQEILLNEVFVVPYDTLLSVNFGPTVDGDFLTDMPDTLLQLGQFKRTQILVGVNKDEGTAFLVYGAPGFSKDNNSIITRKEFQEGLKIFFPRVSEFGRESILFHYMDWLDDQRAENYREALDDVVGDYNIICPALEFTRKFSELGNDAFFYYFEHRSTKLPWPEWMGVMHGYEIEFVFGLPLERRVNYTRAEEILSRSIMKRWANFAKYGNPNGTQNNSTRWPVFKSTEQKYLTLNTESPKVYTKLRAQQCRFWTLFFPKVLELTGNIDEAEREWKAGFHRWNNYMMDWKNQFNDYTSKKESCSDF
Sequence of Acetylcholinesterase (Electrophorus electricus) (O42275 24-633 limits assumed): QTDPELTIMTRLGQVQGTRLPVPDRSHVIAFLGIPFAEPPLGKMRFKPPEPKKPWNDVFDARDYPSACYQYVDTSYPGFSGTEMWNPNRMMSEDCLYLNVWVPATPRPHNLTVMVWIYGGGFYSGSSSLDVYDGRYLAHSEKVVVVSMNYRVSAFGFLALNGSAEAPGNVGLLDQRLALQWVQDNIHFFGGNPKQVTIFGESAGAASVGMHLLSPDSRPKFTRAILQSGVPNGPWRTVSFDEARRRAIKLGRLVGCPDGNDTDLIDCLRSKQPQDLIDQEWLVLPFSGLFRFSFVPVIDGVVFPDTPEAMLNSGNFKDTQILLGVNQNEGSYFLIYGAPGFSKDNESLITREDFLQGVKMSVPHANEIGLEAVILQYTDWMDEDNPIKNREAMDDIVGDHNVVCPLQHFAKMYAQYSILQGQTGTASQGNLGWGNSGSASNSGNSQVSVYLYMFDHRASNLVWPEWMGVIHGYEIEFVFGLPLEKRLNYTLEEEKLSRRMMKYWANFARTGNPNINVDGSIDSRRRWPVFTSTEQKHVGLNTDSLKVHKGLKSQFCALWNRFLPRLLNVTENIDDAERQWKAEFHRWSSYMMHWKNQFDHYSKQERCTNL

Work on COc1cc(CNCCCNc2c3c(nc4ccccc24)CCCCC3)ccc1O yielded an IC50 (Acetylcholinesterase [1]) of 3.01 µM and an IC50 (Cholinesterase [2]) of 0.357 µM.
For CCc1[nH]c2ccccc2c1CCN1CCC[C@H](CC)C1, the IC50 (Cholinesterase [3]) was 0.65 µM and the IC50 (Acetylcholinesterase [4]) was greater than 100 µM.
In the case of c1ccc(-c2nn(-c3ccccc3)cc2-c2nc(-c3ccccc3)c(-c3ccccc3)n2-c2ccccc2)cc1, the IC50 (Acetylcholinesterase [5]) is reported as 41.2 µM and the IC50 (Cholinesterase [6]) is reported as 0.35 µM.
Work on Cc1ccc(-c2nc3cc(C(=O)Nc4ccc(O)cc4)ccc3[nH]2)cc1 yielded an IC50 (Acetylcholinesterase [7]) greater than 100 µM and an IC50 [8] of 1.13 µM.
O=C(Nc1ccccc1Cl)C(NS(=O)(=O)c1ccccc1)c1ccccc1 (centres undefined) gave an IC50 (Cholinesterase [9]) of 7.33 µM and an inhibition [10] of 1.62%.
For COc1ccc2c(c1)CC/C(=C\c1ccc[n+](Cc3ccc(Br)cc3)c1)C2=O, the IC50 (Acetylcholinesterase [11]) was 17.6 µM and the IC50 (Cholinesterase [12]) was 0.883 µM.
In the case of CCC(=O)N(CC(=O)Nc1ccccc1C)Cc1ccccc1, the IC50 (Acetylcholinesterase [11]) is reported as greater than 1610 µM and the IC50 (Cholinesterase [12]) is reported as 25.9 µM.
CCC(CC)CN[C@H](Cc1c[nH]c2ccccc12)C(=O)NCCN1CCc2ccccc2C1 gave an IC50 (Acetylcholinesterase [13]) greater than 10 µM and an IC50 (Cholinesterase [3]) of 0.3 µM.
Compound O=C(CNCCCCNCC(=O)Nc1c2c(nc3c1CCC3)CCCC2)Nc1c2c(nc3c1CCC3)CCCC2 has a Ratio IC50 [14] of 22.
Fc1ccc2c(c1)c1c(n2CCN2CCCCC2)CCCC1 showed an IC50 (Cholinesterase [9]) of 0.11 µM and an IC50 (Acetylcholinesterase [13]) greater than 100 µM.
In the case of COc1cccc(NC(=O)CN(C)[C@@H](C)C(=O)c2c[nH]c3ccccc23)c1, the IC50 (Cholinesterase [3]) is reported as 4.24 µM and the IC50 (Acetylcholinesterase [4]) is reported as greater than 100 µM.
For O=C(Oc1cc(OC(=O)N2CCCCC2)cc(C(O)CN2CCCCC2)c1)N1CCCCC1 (centres undefined), the Ki (Acetylcholinesterase [15]) was 6.93 µM and the Ki (Cholinesterase [16]) was 0.011 µM.
Work on CCCCCCNC(=O)Oc1ccc2c(c1)CN1CCc3ccc(/N=N/c4ccccc4)cc3C1N2C (centres undefined) yielded an inhibition (Acetylcholinesterase [17]) of 28.5%.
For CCc1ccccc1NC(=O)c1ccc(NS(=O)(=O)c2ccccc2)cc1, the Ratio IC50 [18] was greater than 1080, the IC50 (Cholinesterase [9]) was 0.046 µM and 0.04 µM and the inhibition [10] was 0.52%. It also gave an IC50 (Acetylcholinesterase [4]) greater than 50 µM.
Work on O=C(NCCCCCCNc1c2c(nc3ccccc13)CCCC2)c1ccccc1O yielded an IC50 (Acetylcholinesterase [1]) of 0.02 µM and an IC50 (Cholinesterase [9]) of 0.01 µM.
[O-]/[N+](=C\c1ccc2cccc(O)c2n1)Cc1ccccc1 gave an IC50 [19] greater than 100 µM.
Work on CC(C)(C)c1cc(CNCCNc2c3c(nc4ccccc24)CCCCC3)cc(C(C)(C)C)c1O yielded a Ratio IC50 [20] of 23.
With CCN(CC)C(=O)c1ccc2c(c1)nc(Cc1ccc(OC(=O)N3CCC3)cc1)n2CCC(C)C the Ratio IC50 [21] was 10 and the IC50 (Cholinesterase [3]) was 0.006 µM.
